Measured values reported in US6350775B1, “3-phenyl-furan-(5H)-2-one and dihydrofuran-2-one derivatives as antibacterial agents” (priority 1996, dated 2002).
In brackets after ≈: the same amount, converted by molar mass.

Tests used:
Type in all cases: cell-based
[1] = test system: Staphylococcus aureus Oxford; assay: MIC by agar-dilution, Staphylococcus aureus Oxford; details: 10^4 CFU/spot, 37° C., 24 hours
Protocol: (§1) The following results were obtained on a standard in vitro test system. The activity is described in terms of the minimum inhibitory concentration (MIC) determined by the agar-dilution technique with an inoculum size of 10^4 CFU/spot. Staphylococci were tested on agar, using an inoculum of 10^4 CFU/spot and an incubation temperature of 37° C. for 24 hours—standard test conditions for the expression of methicillin resistance.

[2] = test system: Staphylococcus aureus Novb. Res (Novobiocin resistant); assay: MIC by agar-dilution, Staphylococcus aureus Novb. Res; details: 10^4 CFU/spot, 37° C., 24 hours
Protocol: as §1

[3] = test system: Staphylococcus aureus MRQS (methicillin resistant quinolone sensitive); assay: MIC by agar-dilution, Staphylococcus aureus MRQS; details: 10^4 CFU/spot, 37° C., 24 hours
Protocol: as §1

[4] = test system: Staphylococcus aureus MRQR (methicillin resistant quinolone resistant); assay: MIC by agar-dilution, Staphylococcus aureus MRQR; details: 10^4 CFU/spot, 37° C., 24 hours
Protocol: as §1

[5] = test system: Coagulase Negative Staphylococcis MS; assay: MIC by agar-dilution, Coagulase Negative Staphylococci MS; details: 10^4 CFU/spot, 37° C., 24 hours
Protocol: as §1

[6] = test system: Coagulase Negative Staphylococcis MR (methicillin resistant); assay: MIC by agar-dilution, Coagulase Negative Staphylococci MR; details: 10^4 CFU/spot, 37° C., 24 hours
Protocol: as §1

[7] = test system: Streptococcus pyogenes C203; assay: MIC by agar-dilution, Streptococcus pyogenes C203; details: agar with 5% defibrinated horse blood, 10^4 CFU/spot, 37° C., 5% carbon dioxide, 48 hours
Protocol: as §1
(§2) Streptococci and enterococci were tested on agar supplemented with 5% defibrinated horse blood, an inoculum of 10^4 CFU/spot and an incubation temperature of 37° C. in an atmosphere of 5% carbon dioxide for 48 hours—blood is required for the growth of some of the test organisms.

Enterococcus faecalis = assay: MIC by agar-dilution, Enterococcus faecalis; details: agar with 5% defibrinated horse blood, 10^4 CFU/spot, 37° C., 5% carbon dioxide, 48 hours
Protocol: as §1, §2

Bacillus subtilis = assay: MIC by agar-dilution, Bacillus subtilis; details: 10^4 CFU/spot
Protocol: as §1

For `CC(=O)NC[C@H]1CC(c2ccc(C3=CCN(C(=O)CO)CC3)cc2)C(=O)O1` (stereo partly drawn) [Example 5, 5R,3RS-5-Acetamidomethyl-3-(4-[1-hydroxyacetyl-1,2,5,6-tetrahydropyrid-4-yl]phenyl)dihydrofuran-2(3H)-one], which MIC [1] is on record?
Its MIC is 4.0 µg/mL (≈ 10.7 µM).

What about the MIC [2] of the same compound?
The MIC was 4.0 µg/mL (≈ 10.7 µM).

What about the MIC [3] of the same compound?
The MIC was 4.0 µg/mL (≈ 10.7 µM).

And the MIC [4]?
The MIC was 8.0 µg/mL (≈ 21.5 µM).

What about the MIC [5] of the same compound?
The MIC was 2.0 µg/mL (≈ 5.37 µM).

And the MIC [6]?
Its MIC is 4.0 µg/mL (≈ 10.7 µM).

And the MIC [7]?
The MIC was 8.0 µg/mL (≈ 21.5 µM).

What about the MIC (Enterococcus faecalis) of the same compound?
The MIC was 8.0 µg/mL (≈ 21.5 µM).

What about the MIC (Bacillus subtilis) of the same compound?
The MIC was 4.0 µg/mL (≈ 10.7 µM).
